These results are taken from BindingDB's records for doi:10.1021/jm00088a013 (University of Kansas, 1992).

This experiment has as its target Adenosylhomocysteinase (Bos taurus). Put plainly: Inhibitory activity against bovine liver S-adenosyl-L-homocysteine hydrolase (AdoHcy) rate of inactivation by NpcA.

Each structure is given as a SMILES string.

Molecule `Nc1ncnc2c1ncn2[C@@H]1C=C[C@@H](O)[C@H]1O` returned a Ki of 49 nM. The value for `Nc1ncnc2c1ncn2[C@@H]1C[C@H](c2ccccc2)[C@@H](O)[C@H]1O` was 67600 nM; that for `CC[C@H]1C[C@@H](n2cnc3c(N)ncnc32)[C@H](O)[C@@H]1O` was 586 nM. In turn, `C[C@@H]1C[C@@H](n2cnc3c(N)ncnc32)[C@H](O)[C@@H]1O` yielded a Ki of 5020 nM. `C=C[C@H]1C[C@@H](n2cnc3c(N)ncnc32)[C@H](O)[C@@H]1O` had a Ki of 22 nM.

Regarding `C[C@H]1C[C@@H](n2cnc3c(N)ncnc32)[C@H](O)[C@@H]1O`, the Ki stood at 27 nM. `CC1=C[C@@H](n2cnc3c(N)ncnc32)[C@H](O)[C@@H]1O` came in with a Ki of 9150 nM. The molecule `Nc1ncnc2c1ncn2[C@@H]1CC[C@@H](O)[C@H]1O` [(1R,2S,3R)-3-(6-amino-9H-purin-9-yl)cyclopentane-1,2-diol] yielded a Ki of 12 nM.
